Read-outs that look alike come from different tables or passages of the source.
Legend:
Type in all cases: cell-based
[1] = test system: phosphorylation of AKT (pAKT) in SKBR3 cells express WT PI3Ka; assay: In vitro cell pAKT (Ser473) HTRF, SKBR3 cells; conditions: cellular pAKT
In short: (§1)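 Cells seeded on plates pre-stamped with 10-point compound dilutions, then grown 6 h at 37 °C (T47D in RPMI/10% FBS/insulin; SKBR3 in McCoy's 5a/10% FBS). Lysates read for pAKT Ser473 by HTRF after overnight antibody incubation. Inhibition normalised to 0.1% DMSO and 10 uM alpelisib; IC50 by four-parameter fit.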

[2] = test system: T47D cells expressing mutant PI3Ka (H1047R); assay: In vitro cell proliferation, T47D cells (CellTiter-Glo); conditions: inhibition of proliferation, read-out: Avg T-47D EC50
In short: (§2)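 1,500 cells/well seeded onto pre-stamped 10-pt dilution plates; T47D in RPMI + 10% FBS + insulin 0.2 units/mL, SKBR3 in McCoys 5a + 10% FBS. 72 h, 37 °C, 5% CO2. CTG readout. 0% = 0.1% DMSO, 100% = 10 uM Alpelisib; sigmoidal fit gives EC50.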

[3] = test system: phosphorylation of AKT (pAKT) in T47D cells expressing mutant PI3Ka (H1047R); assay: In vitro cell pAKT (Ser473) HTRF, T47D cells; conditions: cellular pAKT, T47D cells, mutant PI3Ka (H1047R), 6 hours, read-out: Avg T-47D IC50
In short: as §1

[4] = test system: SKBR3 cells express WT PI3Ka; assay: In vitro cell proliferation, SKBR3 cells (CellTiter-Glo); conditions: inhibition of proliferation
In short: as §2

| Compound | IC50 ([1]; 6 hours) | EC50 ([2]; 72 hours) | IC50 [3] | EC50 ([4]; 72 hours) | IC50 ([1]; Homo sapiens, SK-BR-3, 6 h) | EC50 ([2]; Homo sapiens, T47D, 72 h) | IC50 ([3]; Homo sapiens, T47D, 6 h) | EC50 ([4]; Homo sapiens, SK-BR-3, 72 h) |
| --- | --- | --- | --- | --- | --- | --- | --- | --- |
| Cc1cc([C@@H](C)Nc2ccccc2C(=O)O)c2cc(-c3cnc4ccoc4c3)n(C)c(=O)c2c1 [Example 265] |  |  |  |  | > 15 µM | 1 to 500 nM | 1 to 500 nM | > 15 µM |
| Cc1cc([C@@H](C)Nc2ccccc2C(=O)O)c2cc(-c3cnc(C4CC4)cn3)n(C)c(=O)c2c1 [Example 517] |  |  |  |  | > 15 µM | 1 to 500 nM | 1 to 500 nM | > 15 µM |
| Cc1cc([C@@H](C)Nc2ccccc2C(=O)O)c2cc(-c3cnc4c(c3)CCO4)n(C)c(=O)c2c1 [Example 252] |  |  |  |  | > 15 µM | 1 to 500 nM | 1 to 500 nM | > 15 µM |
| C[C@@H](Nc1cccc(F)c1C(=O)O)c1cc(F)cc2c(=O)n(C)c(C3CC3)cc12 [Example 454] |  |  |  |  | > 15 µM | 1 to 500 nM | 1 to 500 nM | > 15 µM |
| CC(Nc1ccccc1C(=O)O)c1cc(F)cc2c(=O)n(C)c(-c3cnc(-c4ccc(F)cc4F)c(F)c3)cc12 (stereo not drawn) [Example 560] | > 15 µM | 1 to 500 nM | 1 to 500 nM | 2 to 15 µM |  |  |  |  |
| Cc1cc([C@@H](C)Nc2ccccc2C(=O)O)c2cc(OCc3ccccn3)n(C)c(=O)c2c1 [Example 335] |  |  |  |  | > 15 µM | 500 to 2000 nM | 1 to 500 nM | > 15 µM |
| Cc1cc([C@@H](C)Nc2ccccc2C(=O)O)c2cc(-c3cnc(C(F)F)c(F)c3)n(C)c(=O)c2c1 [Example 290] |  |  |  |  | > 15 µM | 1 to 500 nM | 1 to 500 nM | > 15 µM |
| Cc1cc([C@@H](C)Nc2ccccc2C(=O)O)c2cc(-c3ccc(OC(F)F)nc3)n(C)c(=O)c2c1 [Example 189] |  |  |  |  | > 15 µM | 1 to 500 nM | 1 to 500 nM | > 15 µM |
| C[C@@H](Nc1ccccc1C(=O)O)c1cc(F)cc2c(=O)n(C)c(N3CCN(c4nccs4)CC3)cc12 [Example 466] |  |  |  |  | 2 to 15 µM | 1 to 500 nM | 1 to 500 nM | > 15 µM |
| Cc1cc([C@@H](C)Nc2ccccc2C(=O)O)c2cc(OCC(C)C)n(C)c(=O)c2c1 [Example 40, (R)-2-((1-(3-isobutoxy-2,7-dimethyl-1-oxo-1,2-dihydroisoquinolin-5-yl)ethyl)amino)benzoic acid] |  |  |  |  | > 15 µM | 500 to 2000 nM | 1 to 500 nM | > 15 µM |
| Cc1cc(C(C)Nc2ccccc2C(=O)O)c2cc(C#Cc3cccc(Cl)c3)n(C)c(=O)c2c1 (single isomer, unassigned) [Example 143] |  |  | > 15000 nM |  | > 15 µM | > 15000 nM |  | > 15 µM |
| Cc1cc(C(C)Nc2ccccc2C(=O)O)c2cc(N3CC4CN(CC(F)(F)F)CC4C3)n(C)c(=O)c2c1 (mixture of isomers) [Example 90] | > 15 µM | 500 to 2000 nM | 500 to 2000 nM | > 15 µM |  |  |  |  |
| Cc1cc(C(C)Nc2ccccc2C(=O)O)c2cc(N3Cc4cc(F)cc(F)c4C3)n(C)c(=O)c2c1 (stereo not drawn) [Example 84] |  |  |  |  | > 15 µM | 500 to 2000 nM | 1 to 500 nM | > 15 µM |
| C[C@@H](Nc1cccc(F)c1C(=O)O)c1cc(F)cc2c(=O)n(C)c(N3CC(F)(F)C3)cc12 [Example 412] |  |  |  |  | > 15 µM | 2000 to 15000 nM | 500 to 2000 nM | > 15 µM |
| Cc1cc([C@@H](C)Nc2ccccc2C(=O)O)c2cc(-c3ccc(C(F)(F)F)cn3)n(C)c(=O)c2c1 [Example 396] |  |  |  |  | > 15 µM | 1 to 500 nM | 1 to 500 nM | > 15 µM |
| C[C@@H](Nc1ccccc1C(=O)O)c1cc(F)cc2c(=O)n(C)c(C3C[C@@H]3CF)c(F)c12 (single isomer, unassigned) [Example 577] |  |  |  |  | > 15 µM | 1 to 500 nM | 1 to 500 nM | > 15 µM |
| Cc1cc([C@@H](C)Nc2ccccc2C(=O)O)c2cc(-c3ccc(O[C@H]4C[C@@H](F)C4)nc3)n(C)c(=O)c2c1 [Example 202] | > 15 µM | 1 to 500 nM | 1 to 500 nM | > 15 µM |  |  |  |  |

Results, then the molecule that gave them:

| IC50 ([1]; 6 hours) | EC50 ([2]; 72 hours) | IC50 [3] | EC50 ([4]; 72 hours) | IC50 ([1]; Homo sapiens, SK-BR-3, 6 h) | EC50 ([2]; Homo sapiens, T47D, 72 h) | IC50 ([3]; Homo sapiens, T47D, 6 h) | EC50 ([4]; Homo sapiens, SK-BR-3, 72 h) | Compound |
| --- | --- | --- | --- | --- | --- | --- | --- | --- |
| > 15 µM | 2000 to 15000 nM | 2000 to 15000 nM | > 15 µM |  |  |  |  | Cc1cc([C@@H](C)Nc2ccccc2C(=O)O)c2cc(N3CCn4c(nnc4C(F)(F)F)C3)n(C)c(=O)c2c1 [Example 435] |
| > 15 µM | 2000 to 15000 nM | 2000 to 15000 nM | 2 to 15 µM |  |  |  |  | Cc1cc(C(C)Nc2ccc(Cl)nc2C(=O)O)c2cc(N3CCC(C)(C)CC3)n(C)c(=O)c2c1 (single isomer, unassigned) [Example 4, 6-chloro-3-((1-(3-(4,4-dimethylpiperidin-1-yl)-2,7-dimethyl-1-oxo-1,2-dihydroisoquinolin-5-yl)ethyl)amino)picolinic acid] |
| > 15 µM | 1 to 500 nM | 1 to 500 nM | > 15 µM |  |  |  |  | C[C@@H](Nc1cccc(F)c1C(=O)O)c1cc(F)cc2c(=O)n(C)c(N3CCC(F)(F)C3)cc12 [Example 414] |
|  |  |  |  | 2 to 15 µM | 1 to 500 nM | 1 to 500 nM | 2 to 15 µM | C#Cc1ccc(N[C@H](C)c2cc(C)cc3c(=O)n(C)c(N4CCN(CC(F)(F)F)CC4)cc23)c(C(=O)O)n1 [Example 299] |
|  |  |  |  | > 15 µM | 500 to 2000 nM | 500 to 2000 nM | > 15 µM | Cc1cc([C@@H](C)Nc2ccccc2C(=O)O)c2cc(N3CCN(Cc4cnn(C)c4)CC3)n(C)c(=O)c2c1 [Example 200] |
|  |  |  | > 15 µM | > 15 µM | 1 to 500 nM | 1 to 500 nM |  | CCN1CCN(c2cc3c([C@@H](C)Nc4ccccc4C(=O)O)cc(C)cc3c(=O)n2C)CC1C(F)(F)F (single isomer, unassigned) [Example 266] |
|  |  |  |  | 2 to 15 µM | 500 to 2000 nM | 1 to 500 nM | > 15 µM | Cc1cc(C(C)Nc2ccc(Cl)nc2C(=O)O)c2cc(N3Cc4ccc(F)cc4C3)n(C)c(=O)c2c1 (stereo not drawn) [Example 71] |
|  |  |  |  | > 15 µM | 500 to 2000 nM | 1 to 500 nM | > 15 µM | Cc1cc([C@@H](C)Nc2ccccc2C(=O)O)c2cc(N3CC4(CN(CC(F)(F)F)C4)C3)n(C)c(=O)c2c1 [Example 184] |
|  |  |  |  | 2 to 15 µM | 1 to 500 nM | 1 to 500 nM | > 15 µM | Cc1cc([C@@H](C)Nc2ccccc2C(=O)O)c2cc(N3CCN(c4nccs4)CC3)n(C)c(=O)c2c1 [Example 340] |
|  | 1 to 500 nM | 1 to 500 nM |  | > 15 µM |  |  | > 15 µM | Cc1cc(C(C)Nc2ccccc2C(=O)O)c2cc(N3C[C@@H]4CCCC[C@H]4C3)n(C)c(=O)c2c1 (single isomer, unassigned) [Example 100] |
| > 15 µM | 1 to 500 nM | 1 to 500 nM | > 15 µM |  |  |  |  | Cc1cc([C@@H](C)Nc2ccccc2C(=O)O)c2cc(N3CCN(C(C)C(F)(F)F)CC3)n(C)c(=O)c2c1 (single isomer, unassigned) [Example 279] |
|  |  |  |  | > 15 µM | 1 to 500 nM | 1 to 500 nM | > 15 µM | COC1CN(c2cc3c([C@@H](C)Nc4ccccc4C(=O)O)cc(C)cc3c(=O)n2C)C1 [Example 180] |
|  |  |  |  | > 15 µM | 1 to 500 nM | 1 to 500 nM | > 15 µM | Cc1cc([C@@H](C)Nc2ccccc2C(=O)O)c2cc(C3CC3)n(C)c(=O)c2c1 [Example 43, (R)-2-((1-(3-cyclopropyl-2,7-dimethyl-1-oxo-1,2-dihydroisoquinolin-5-yl)ethyl)amino)benzoic acid] |
